Laboratory results as given in patent US12565515B2, “1,2,4-oxadiazole compounds as inhibitors of CD47 signalling pathways” (AURIGENE ONCOLOGY LIMITED, priority 2018, dated 2026).

Legend:
[1] = system: luciferase expressing Raji cells; test: Luciferase based phagocytosis assay; type: cell-based; details: human monocyte-derived macrophages, luminescence, read-out: % normalized phagocytosis (at 10 μM)
Description: (§1) DPBS (Gibco), RPMI 1640 WITH HEPES AND L-GLN-500 ML (Lonza), Recombinant Human M-CSF (R& D systems), CD47 Monoclonal Antibody (B6H12), Functional Grade antibody (Ebioscience), Mouse IgG1 kappa Isotype Control, Functional Grade (Ebioscience), Vacutainer (multiple sample luer adapter) (BD), Vacutainer (sodium heparin (NH) 158USP units, Blood collection tubes (BD), Histopaque (density—1.077 gm/ml) (SIGMA 1077), Trypan Blue solution (SIGMA-T8154), Hemacytometer (Bright line-SIGMA Z359629), Scalp vein infusion set (JMS), Cell Dissociation buffer (Gibco), 48-well sterile flat bottom plates (Corning), Luciferase expressing Raji cells (Generated in house by trasfection of luciferase gene in Raji cells) Luminometer, Hygromycin B (Invitrogen), Bright Glo luciferase assay system (Promega), 96 well plate, polystyrene, high band, white flat bottom wells (Sigma CLS3912), APC anti-mouse/human CD11b Antibody (Biolegend), H929 cells, CFSE (Ebioscience), Fetal Bovine Serum (Gibco Cat #: 10437028), Round-Bottom FACs Tubes (BD), Flowcytometer BD FACS Verse, 96 well plates, ultra-low attachment (Corning).
In vitro phagocytosis assay was performed to evaluate the ability of test item to enhance the phagocytic activity of macrophages. Monocytes were isolated from blood of healthy donor and cultured for 6-8 days using 10% RPMI (Roswell Park Memorial Institute) media and recombinant human M-CSF to differentiate into macrophages. Media was changed every alternate day. After differentiation, adherent macrophages were collected by gentle scraping and cultured in 10% RPMI overnight at a density of 0.1 million per well in 48 well tissue culture plate. Simultaneously, luciferase expressing Raji cells were cultured in 10% RPMI media with 100 μg/mL of hygromycin B in tissue culture flask. On the day of phagocytosis, macrophages were serum starved for 2 hours. 0.4 million luciferase expressing Raji cells per well were incubated with anti human CD47 purified B6H12 or Mouse IgG1 K Isotype Control antibody or various concentrations of test item in serum free media for 30 min at 37° C. and added into respective well of the 48 well plate seeded with macrophages. After 2 hours, cells were washed twice with PBS and 100 μL of serum free RPMI was added to each well. Additionally, 50 μL Bright Glow reagent was added to each well followed by mixing of cells and incubated for 5 min in dark. Luminescence reading was taken using plate reader after transferring the content of each well to white plate. Intensity of luminescence indicated the extent of phagocytosis. Each experimental condition was carried out in duplicate.

H929 cells = test: FACS based phagocytosis assay; type: cell-based; details: NCI-H929, human macrophages, CFSE stained H929 cells, flow cytometry, normalized to positive control B6H12
Description: as §1
Monocytes were isolated from blood of healthy donor and cultured for 6-8 days using 10% RPMI (Roswell Park Memorial Institute) media and recombinant human M-CSF to differentiate into macrophages. Media was changed every alternate day. Simultaneously, H929 cells were cultured in 10% RPMI media with 50 μg/mL of betamercaptoethanol in tissue culture flask. On the day of phagocytosis adherent macrophages were serum starved for 2 hours in RPMI media. Simultaneously H929 cells were stained with 0.3 μM CFSE stain. After washing, 0.2 million CFSE stained H929 cells were incubated with anti-human CD47 or Mouse IgG1 K Isotype Control antibody or various conc of test item in serum free media for 30 min at 37° C. After 2 hours of serum starvation macrophages were dissociated with cell dissociation buffer and collected by gentle scraping and added at conc of 0.05 million per well into respective wells of the ultra-low attachment 96 well plate seeded with H929 cells. Phagocytosis was allowed for 2 hours. After 2 hours, cells were washed with PBS and stained with 1 μL of anti-human CD11b-APC antibody prepared in 100 μL of PBS for 30 min in 4° C. in dark. Cells were further washed and fixed in 100 μL of fixation buffer until acquired by Flow cytometry. The extent of phagocytosis of H929 cells by human macrophages was measured by acquiring the samples by Flow cytometry. Samples acquired by Flow cytometry were analysed by using FlowJo software. Each experimental condition was carried out in duplicate. Cells positive for FITC (CFSE) and CD11b-APC were considered as phagocytosed macrophages. Raw data of % phagocytosis by macrophages were obtained in the form of excel sheet from FlowJo. % phagocytosis from isotype control (background phagocytosis) was subtracted from % phagocytosis of macrophages treated with compound as well as other controls to get corrected phagocytosis values. Corrected phagocytosis values of compound treated samples were normalized with phagocytosis of positive control (B6H12) using the formula: % normalized phagocytosis=[(corrected % phagocytosis of compound)/(corrected phagocytosis of B6H12)*100]

Row | SMILES | activation at 10 µM [1] [%] | activation at 10 µM (H929 cells) [%]
1 | NCCCC[C@H](N)c1noc([C@H](CCC(N)=O)NC(=O)N2CCC[C@H]2C(=O)O)n1 [Compound 1, (((S)-4-amino-1-(3-((S)-1,5-diaminopentyl)-1,2,4-oxadiazol-5-yl)-4-oxobutyl)carbamoyl)-L-proline] | 39 | 45
2 | N=C(N)NCCC[C@H](N)c1noc([C@H](CCC(=O)O)NC(=O)N2CCCC2C(=O)O)n1 (stereo partly drawn) [Compound 2] |  | 37
3 | N=C(N)NCCC[C@H](NC(=O)N1CCCC1C(=O)O)c1nc([C@@H](N)CCC(=O)O)no1 (stereo partly drawn) [Compound 3] | 42 | 73
4 | N=C(N)NCCC[C@H](NC(=O)N1CCCC1C(=O)O)c1nc([C@@H](N)CCC(N)=O)no1 (stereo partly drawn) [Compound 5] |  | 56
5 | N=C(N)NCCC[C@H](N)c1noc([C@H](CCC(=O)O)NC(=O)N[C@@H](Cc2ccccc2)C(=O)O)n1 [Compound 7, (S)-4-(3-((S)-1-amino-4-guanidinobutyl)-1,2,4-oxadiazol-5-yl)-4-(3-((S)-1-carboxy-2-phenylethyl)ureido)butanoic acid] | 58 | 38
6 | N=C(N)NCCC[C@H](NC(=O)N[C@@H](CCC(=O)O)c1nc([C@@H]2CCCN2)no1)C(=O)O [Compound 8] | 20 | 40
7 | N=C(N)NCCC[C@H](NC(=O)N[C@@H](CCC(N)=O)c1nc([C@@H](N)CC(N)=O)no1)C(=O)O [Compound 9] | 38 | 
8 | N=C(N)NCCC[C@H](NC(=O)N[C@@H](Cc1ccccc1)C(=O)O)c1nc([C@@H](N)CCC(N)=O)no1 [Compound 10] |  | 28
9 | N=C(N)NCCC[C@H](NC(=O)N[C@@H](CCC(N)=O)C(=O)O)c1nc([C@@H](N)CCC(N)=O)no1 [Compound 12] | 44 | 20
10 | NCCCC[C@H](N)c1noc([C@H](CCC(=O)O)NC(=O)N[C@@H](Cc2cnc[nH]2)C(=O)O)n1 [Compound 13] | 49 | 29
11 | NCc1noc([C@H](Cc2cnc[nH]2)NC(=O)N[C@@H](Cc2ccccc2)C(=O)O)n1 [Compound 14] | 47 | 26
12 | NCCCC[C@H](N)c1noc([C@H](CCC(=O)O)NC(=O)NCC(=O)O)n1 [Compound 15] |  | 62
13 | N[C@@H](Cc1ccccc1)c1noc(CNC(=O)N2CCCC2C(=O)O)n1 (stereo partly drawn) [Compound 16] |  | 27
14 | N[C@@H](CCC(=O)O)c1noc(CNC(=O)N2CCCC2C(=O)O)n1 (stereo partly drawn) [Compound 17] |  | 33
15 | N[C@@H](Cc1cnc[nH]1)c1noc([C@H](Cc2ccccc2)NC(=O)N2CCCC2C(=O)O)n1 (stereo partly drawn) [Compound 19] |  | 52
16 | NC(=O)CC[C@H](N)c1noc([C@H](CCC(=O)O)NC(=O)N2CCCC2C(=O)O)n1 (stereo partly drawn) [Compound 21] |  | 13
17 | N[C@@H](CCC(=O)O)c1noc(CNC(=O)N[C@@H](Cc2cnc[nH]2)C(=O)O)n1 [Compound 22] |  | 33
18 | N=C(N)NCCC[C@H](NC(=O)N1CCCC1C(=O)O)c1nc([C@@H](N)CC(=O)O)no1 (stereo partly drawn) [Compound 23] |  | 60

Row | SMILES | activation at 10 µM [1] [%] | activation at 10 µM (H929 cells) [%]
19 | CCC(C)[C@H](N)c1noc([C@H](CCCNC(=N)N)NC(=O)N2CCCC2C(=O)O)n1 (stereo partly drawn) [Compound 29] |  | 26
20 | N=C(N)NCCC[C@H](NC(=O)N1CCCC1C(=O)O)c1nc([C@@H](N)Cc2c[nH]c3ccccc23)no1 (stereo partly drawn) [Compound 30] |  | 23
21 | N=C(N)NCCC[C@H](NC(=O)N1CCCC1C(=O)O)c1nc(CN)no1 (stereo partly drawn) [Compound 31] |  | 58
22 | N[C@@H](CCC(=O)O)c1noc([C@H](CCC(=O)O)NC(=O)N2CCCC2C(=O)O)n1 (stereo partly drawn) [Compound 32] |  | 46
23 | N[C@@H](CCC(=O)O)c1noc([C@H](Cc2ccccc2)NC(=O)N2CCC[C@H]2C(=O)O)n1 [Compound 33] |  | 31
24 | N[C@@H](CCC(=O)O)c1noc([C@H](CO)NC(=O)N2CCCC2C(=O)O)n1 (stereo partly drawn) [Compound 35] |  | 35
25 | CCC(C)[C@H](NC(=O)N[C@@H](CCCNC(=N)N)c1nc([C@@H](N)CCC(=O)O)no1)C(=O)O (stereo partly drawn) [Compound 37] |  | 17
26 | COC(=O)CC[C@H](N)c1noc(C(CCCNC(=N)N)NC(=O)N2CCCC2C(=O)OC)n1 (stereo partly drawn) [Compound 39] |  | 23
27 | COC(=O)C1CCCN1C(=O)NC(CCCNC(=N)N)c1nc([C@@H](N)CCC(=O)O)no1 (stereo partly drawn) [Compound 40] |  | 27
28 | NCCCC[C@H](NC(=O)NCc1nc([C@@H](N)CCC(N)=O)no1)C(=O)O [Compound 41] |  | 31
29 | NCCCC[C@H](NC(=O)N[C@@H](CCC(N)=O)c1nc([C@@H](N)CC(N)=O)no1)C(=O)O [Compound 43] |  | 43
30 | CC(C)C[C@H](NC(=O)N[C@@H](CCCNC(=N)N)c1nc([C@@H](N)CCC(=O)O)no1)C(=O)O [Compound 44] |  | 20
31 | N=C(N)NCCC[C@H](NC(=O)N[C@@H](Cc1c[nH]c2ccccc12)C(=O)O)c1nc([C@@H](N)CCC(=O)O)no1 [Compound 46] |  | 30
32 | N=C(N)NCCC[C@H](NC(=O)N[C@@H](CC(=O)O)C(=O)O)c1nc([C@@H](N)CCC(=O)O)no1 [Compound 47] |  | 18
33 | N=C(N)NCCC[C@H](NC(=O)NCC(=O)O)c1nc([C@@H](N)CCC(=O)O)no1 [Compound 48] |  | 29
34 | NC(=O)CC[C@H](N)c1noc(CNC(=O)N[C@@H](CCC(=O)O)C(=O)O)n1 [Compound 50] |  | 26
35 | N=C(N)NCCC[C@H](NC(=O)N[C@@H](CCC(=O)O)C(=O)O)c1nc([C@@H](N)CCC(=O)O)no1 [Compound 51] |  | 24
